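Following 48 hours of exposure in 96-well plates, responses at five concentrations were used to interpolate endpoints linearly. GI50 marks 50% less growth. Definition used: TGI = concentration required for complete inhibition of growth.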
Experiments:
Assay in all cases: NCI anticancer screen, dose series, 48 h
SK-MEL-28 melanoma = tested on: SK-MEL-28 melanoma
A498 renal = tested on: A498 renal
HOP-62 NSCLC = tested on: HOP-62 NSCLC
NCI-H226 lung = tested on: NCI-H226 lung
OVCAR-3 ovarian = tested on: OVCAR-3 ovarian
U251 CNS = tested on: U251 CNS
HCC-2998 colon = tested on: HCC-2998 colon
UACC-62 melanoma = tested on: UACC-62 melanoma
SNB-75 CNS = tested on: SNB-75 CNS
SNB-19 CNS = tested on: SNB-19 CNS
K-562 leukemia = tested on: K-562 leukemia
HT29 colon = tested on: HT29 colon
HS 578T breast = tested on: HS 578T breast
HOP-92 NSCLC = tested on: HOP-92 NSCLC
NCI-H460 lung = tested on: NCI-H460 lung
SN12C renal = tested on: SN12C renal
CCRF-CEM leukemia = tested on: CCRF-CEM leukemia
MDA-MB-435 = tested on: MDA-MB-435
NCI-H522 lung = tested on: NCI-H522 lung
T-47D breast = tested on: T-47D breast
DU-145 prostate = tested on: DU-145 prostate
SR leukemia = tested on: SR leukemia
SF-295 CNS = tested on: SF-295 CNS
OVCAR-8 ovarian = tested on: OVCAR-8 ovarian
HCT-116 colon = tested on: HCT-116 colon
HL-60(TB) leukemia = tested on: HL-60(TB) leukemia
OVCAR-4 ovarian = tested on: OVCAR-4 ovarian
IGROV1 ovarian = tested on: IGROV1 ovarian
SK-MEL-5 melanoma = tested on: SK-MEL-5 melanoma
SW-620 colon = tested on: SW-620 colon
PC-3 prostate = tested on: PC-3 prostate
HCT-15 colon = tested on: HCT-15 colon
NCI-H23 lung = tested on: NCI-H23 lung
COLO 205 colon = tested on: COLO 205 colon
SK-OV-3 ovarian = tested on: SK-OV-3 ovarian
MCF7 breast = tested on: MCF7 breast
UO-31 renal = tested on: UO-31 renal
786-0 renal = tested on: 786-0 renal
MOLT-4 leukemia = tested on: MOLT-4 leukemia
TK-10 renal = tested on: TK-10 renal
MDA-MB-231 breast = tested on: MDA-MB-231 breast
KM12 colon = tested on: KM12 colon
A549 NSCLC = tested on: A549 NSCLC
NCI/ADR-RES ovarian = tested on: NCI/ADR-RES ovarian
ACHN renal = tested on: ACHN renal
RXF 393 renal = tested on: RXF 393 renal
UACC-257 melanoma = tested on: UACC-257 melanoma
RPMI-8226 leukemia = tested on: RPMI-8226 leukemia
CAKI-1 renal = tested on: CAKI-1 renal
EKVX NSCLC = tested on: EKVX NSCLC
SF-539 CNS = tested on: SF-539 CNS
SK-MEL-2 melanoma = tested on: SK-MEL-2 melanoma
LOX IMVI melanoma = tested on: LOX IMVI melanoma
OVCAR-5 ovarian = tested on: OVCAR-5 ovarian
BT-549 breast = tested on: BT-549 breast
MALME-3M melanoma = tested on: MALME-3M melanoma
SF-268 CNS = tested on: SF-268 CNS

In the case of C#CCOc1cccc(-c2nc(N)nc(Nc3ccccc3SSc3ccccc3Nc3nc(N)nc(-c4cccc(OCC#C)c4)n3)n2)c1, the GI50 (SK-MEL-28 melanoma) is reported as > 33.3 µM, the TGI (SK-MEL-28 melanoma) is reported as > 33.3 µM and the GI50 (A498 renal) is reported as 6.58 µM. The TGI (A498 renal) was > 33.3 µM, the GI50 (HOP-62 NSCLC) was 674 nM and the TGI (HOP-62 NSCLC) was 1580 nM. The GI50 (NCI-H226 lung) was 4.52 µM, the TGI (NCI-H226 lung) was > 33.3 µM and the GI50 (OVCAR-3 ovarian) was 18.2 µM. The TGI (OVCAR-3 ovarian) was > 33.3 µM, the GI50 (U251 CNS) was 1080 nM and the TGI (U251 CNS) was 3.82 µM. For the same compound, the GI50 (HCC-2998 colon) was > 33.3 µM, the TGI (HCC-2998 colon) was > 33.3 µM and the GI50 (UACC-62 melanoma) was 5.43 µM. It also gave a TGI (UACC-62 melanoma) of 13.3 µM, a GI50 (SNB-75 CNS) of 8.99 µM and a TGI (SNB-75 CNS) of 31.3 µM. The GI50 (SNB-19 CNS) was 7.37 µM, the TGI (SNB-19 CNS) was > 33.3 µM and the GI50 (K-562 leukemia) was 8.03 µM. For the same compound, the TGI (K-562 leukemia) was > 33.3 µM, the GI50 (HT29 colon) was > 33.3 µM and the TGI (HT29 colon) was > 33.3 µM. For the same compound, the GI50 (HS 578T breast) was 6.87 µM, the TGI (HS 578T breast) was 31.7 µM and the GI50 (HOP-92 NSCLC) was 7.77 µM. For the same compound, the TGI (HOP-92 NSCLC) was > 33.3 µM, the GI50 (NCI-H460 lung) was 1720 nM and the TGI (NCI-H460 lung) was 8.37 µM. It also gave a GI50 (SN12C renal) of 971 nM, a TGI (SN12C renal) of 5.37 µM and a GI50 (CCRF-CEM leukemia) of 2640 nM. For the same compound, the TGI (CCRF-CEM leukemia) was > 33.3 µM, the GI50 (MDA-MB-435) was 14.4 µM and the TGI (MDA-MB-435) was > 33.3 µM. For the same compound, the GI50 (NCI-H522 lung) was 8.13 µM, the TGI (NCI-H522 lung) was > 33.3 µM and the GI50 (T-47D breast) was 3.29 µM. The TGI (T-47D breast) was > 33.3 µM, the GI50 (DU-145 prostate) was 10.6 µM and the TGI (DU-145 prostate) was > 33.3 µM. The GI50 (SR leukemia) was 1410 nM, the TGI (SR leukemia) was > 33.3 µM and the GI50 (SF-295 CNS) was 751 nM. It also gave a TGI (SF-295 CNS) of 1930 nM, a GI50 (OVCAR-8 ovarian) of 2420 nM and a TGI (OVCAR-8 ovarian) of 12.9 µM. For the same compound, the GI50 (HCT-116 colon) was 2000 nM, the TGI (HCT-116 colon) was > 33.3 µM and the GI50 (HL-60(TB) leukemia) was 9.92 µM. The TGI (HL-60(TB) leukemia) was > 33.3 µM, the GI50 (OVCAR-4 ovarian) was 12.9 µM and the TGI (OVCAR-4 ovarian) was > 33.3 µM. The GI50 (IGROV1 ovarian) was 1730 nM, the TGI (IGROV1 ovarian) was 24.2 µM and the GI50 (SK-MEL-5 melanoma) was 9.94 µM. The TGI (SK-MEL-5 melanoma) was > 33.3 µM, the GI50 (SW-620 colon) was 14.3 µM and the TGI (SW-620 colon) was > 33.3 µM. The GI50 (PC-3 prostate) was 1610 nM, the TGI (PC-3 prostate) was > 33.3 µM and the GI50 (HCT-15 colon) was 2310 nM. For the same compound, the TGI (HCT-15 colon) was > 33.3 µM, the GI50 (NCI-H23 lung) was 1950 nM and the TGI (NCI-H23 lung) was 10.4 µM. For the same compound, the GI50 (COLO 205 colon) was > 33.3 µM, the TGI (COLO 205 colon) was > 33.3 µM and the GI50 (SK-OV-3 ovarian) was 13.6 µM. For the same compound, the TGI (SK-OV-3 ovarian) was > 33.3 µM, the GI50 (MCF7 breast) was 17.1 µM and the TGI (MCF7 breast) was > 33.3 µM. It also gave a GI50 (UO-31 renal) of 1510 nM, a TGI (UO-31 renal) of 5.81 µM and a GI50 (786-0 renal) of 21.2 µM. For the same compound, the TGI (786-0 renal) was > 33.3 µM, the GI50 (MOLT-4 leukemia) was 4.45 µM and the TGI (MOLT-4 leukemia) was > 33.3 µM. For the same compound, the GI50 (TK-10 renal) was 13.1 µM, the TGI (TK-10 renal) was > 33.3 µM and the GI50 (MDA-MB-231 breast) was 4.78 µM. For the same compound, the TGI (MDA-MB-231 breast) was > 33.3 µM, the GI50 (KM12 colon) was 1690 nM and the TGI (KM12 colon) was 11.1 µM. For the same compound, the GI50 (A549 NSCLC) was 1100 nM, the TGI (A549 NSCLC) was 4.49 µM and the GI50 (NCI/ADR-RES ovarian) was 1890 nM. It also gave a TGI (NCI/ADR-RES ovarian) of 8.56 µM, a GI50 (ACHN renal) of 1190 nM and a TGI (ACHN renal) of 4.35 µM. For the same compound, the GI50 (RXF 393 renal) was 33.1 µM, the TGI (RXF 393 renal) was > 33.3 µM and the GI50 (UACC-257 melanoma) was 29.7 µM. For the same compound, the TGI (UACC-257 melanoma) was > 33.3 µM, the GI50 (RPMI-8226 leukemia) was 1550 nM and the TGI (RPMI-8226 leukemia) was 17.1 µM. It also gave a GI50 (CAKI-1 renal) of 3.78 µM, a TGI (CAKI-1 renal) of 14.2 µM and a GI50 (EKVX NSCLC) of 7.19 µM. For the same compound, the TGI (EKVX NSCLC) was > 33.3 µM, the GI50 (SF-539 CNS) was 11.1 µM and the TGI (SF-539 CNS) was > 33.3 µM. The GI50 (SK-MEL-2 melanoma) was 16.9 µM, the TGI (SK-MEL-2 melanoma) was > 33.3 µM and the GI50 (LOX IMVI melanoma) was 746 nM. For the same compound, the TGI (LOX IMVI melanoma) was 1800 nM, the GI50 (OVCAR-5 ovarian) was 7.32 µM and the TGI (OVCAR-5 ovarian) was 28.2 µM. The GI50 (BT-549 breast) was 8.52 µM, the TGI (BT-549 breast) was > 33.3 µM and the GI50 (MALME-3M melanoma) was > 33.3 µM. The TGI (MALME-3M melanoma) was > 33.3 µM, the GI50 (SF-268 CNS) was 3.94 µM and the TGI (SF-268 CNS) was 12.1 µM.

Reference: PubChem BioAssay (NCI)
